Measurements published in US10053445B2, “Photocleavable chemical inducers of dimerization (CID) and methods of use” (Children's Medical Center Corporation, priority 2013, dated 2018).

Tests used:
[1] = biological target: FK506 Binding Protein (FKBP) (Homo sapiens, UniProt P62942); details: ligand independently; cited from earlier work
mutated FKBP = mutated FKBP (Homo sapiens, UniProt P62942, F37V); details: cited from earlier work
COS cells = test: peroxisome translocation assay (PEX-RFP-FKBP / DHFR-Kif 1a motor domain); type: cell-based
Protocol: Preliminary tests of Zapalog efficacy in COS cells were also carried out, using a peroxisome translocation assay adapted from Kapitein et al., 2010 (13) and illustrated in FIG. 4. The FKBP domain is coupled to RFP and a peroxisome-binding domain (PEX). The DHFR domain is fused to the motor domain of the kinesin Kif 1a. In the absence of a CID to couple these two proteins, the peroxisomes are stationary and located near the nucleus while the motor (visualized by immunocytochemistry) is diffuse in the cytosol (FIG. 4 DMSO). […] In a live-imaging experiment (FIG. 5), the addition of Zapalog initiated clear movement of the peroxisomes in less than 2 minutes. The dispersal of peroxisomes was reversed by exposure to a 405 nm laser. […] 5) the affinity of Zapalog in vivo is high enough to permit the transport of an organelle by a tethered motor. 6) Zapalog is photo-cleavable in vivo by 405 nm light. […] The experiments described herein seek to characterize Zapalog in sufficient detail to enable its use as a photo-cleavable CID. In particular, experiments were designed to determine the kinetics of Zapalog-induced dimerization and cleavage and whether it could be used to recreate a fully functional split kinesin for studies of motor interactions.

[2] = HPLC analysis of Zapalog before and after exposure to 405 nm light; type: physicochemical; details: after exposure to 405 nm light
Protocol: Zapalog was synthesized and 10 mg of TLC purified material was determined to be >98% pure by LCMS/HPLC and containing less than 0.1% of the monomeric ligands TMP and SLF.

COST cells = test: YFP reporter relocalization to outer mitochondrial membrane (YFP-DHFR / Tom20-mCherry-FKBP); type: cell-based
Description: In one set of experiments, Zapalog's efficacy as a dimerizing agent and the efficacy of light-induced cleavage was examined in simple assays of subcellular localization of a YFP reporter adapted from Komatsu et al., (Komatsu et al. Nature Methods 7: 206-8) and illustrated in FIG. 7 (optionally, a GFP or other reporter could have been used). An assay of Zapalog function was developed based on tethering a YFP reporter to the outer mitochondrial membrane of COST cells. In this assay, the YFP reporter was fused to the DHFR domain and, by default, was cytosolic. The FKBP domain was bound to the outer membrane of mitochondria with the N-terminus sequence of Tom20. The FKBP construct was tagged with mCherry. […] Subsequent 405 nm illumination caused immediate (<5 sec) release of YFP back to the cytosol. This redistribution was followed in video microscopy and quantified as a ratio of membrane bound to cytoplasmic fluorescence intensity

Sequence of FK506 Binding Protein (FKBP) (P62942 whole entry): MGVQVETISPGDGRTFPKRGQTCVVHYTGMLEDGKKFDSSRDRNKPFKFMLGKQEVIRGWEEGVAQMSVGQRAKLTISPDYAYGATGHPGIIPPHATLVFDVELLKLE
Sequence of mutated FKBP (P62942 2-108 F37V limits assumed): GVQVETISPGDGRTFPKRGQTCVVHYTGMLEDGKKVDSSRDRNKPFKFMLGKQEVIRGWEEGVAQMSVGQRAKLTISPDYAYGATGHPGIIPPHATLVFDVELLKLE

Structure (SMILES): CCC(C)(C)C(=O)C(=O)N1CCCCC1C(=O)OC(CCc1ccc(OC)c(OC)c1)c1cccc(N)c1 (stereo not drawn) [SLF]
- affinity [1]: ~1 nM

Structure (SMILES): CCC(C(=O)N1CCCCC1C(=O)O[C@H](CCc1ccc(OC)c(OC)c1)c1cccc(OCC(=O)O)c1)c1cc(OC)c(OC)c(OC)c1 (stereo partly drawn) [SLF′]
- Kd (mutated FKBP): 0.094 nM

Structure (SMILES): CCC(C)(C)C(=O)C(=O)N1CCCC[C@H]1C(=O)O[C@H](CCc1ccc(OC)c(OC)c1)c1cccc(NC(=O)CCCOc2cc([N+](=O)[O-])c(C(C)OCCOc3c(OC)cc(Cc4cnc(N)nc4N)cc3OC)cc2OC)c1 (stereo partly drawn) [Zapalog]
- binding to DHFR and FKBP domains in vivo (COS cells): can bind to the DHFR and FKBP domains in vivo
- heterodimerization (COS cells): can cause heterodimerization
- toxicity to cells (COS cells): not toxic to cells
- translocation of motor domain to peroxisomes and redistribution of peroxisomes (COS cells; 1 uM, in the dark, COS cells): caused the translocation of the motor domain to the peroxisomes and the redistribution of the peroxisomes to the periphery of the cell
- effect of exposure of treated cells to light (COS cells; COS cells, light after CID addition): caused the motor to detach from peroxisomes and resume its diffuse distribution
- time to clear movement of peroxisomes after addition (COS cells; live imaging): less than 2 minutes
- dispersal of peroxisomes after 405 nm laser (COS cells; live imaging, 405 nm laser): reversed
- photolytic cleavage by HPLC [2]: complete photolytic cleavage
- time to relocalization of YFP to the mitochondrial surface (COST cells; 1 μM in the dark): 4 to 5 min
- time to release of YFP back to the cytosol (COST cells; subsequent 405 nm illumination): < 5 s
